Test results from patent US11173174B2, “DNMT inhibitor as solid tumor therapeutic drug” (OHARA PHARMACEUTICAL CO., LTD., priority 2017, dated 2021).

Experiments:
[1] = Distribution coefficient log P (n-octanol/PBS); assay type: physicochemical
Excerpt: The separation systems of silica gel column, separation yields, data obtained from instrumental analysis and distribution coefficients of the compounds (A) to (E) which are 5′-position dibenzyl monophosphates of 5-azacytidines synthesized according to the above synthetic methods A or B are shown as below.

[2] = tested on: colon cancer cells HML58-3; experiment: Cell count by WST-8 method (cytotoxicity); assay type: cell-based; settings: 10 μM of sample, cultured for 4 days, HML58-3 cells
Excerpt: (§1) Hattori et al.). In the evaluation system, a vector in which a secretory luciferase gene was ligated in the downstream of the endogenous promoter CpG island region was introduced into colon cancer cells. When inhibitions of DNA methyltransferase (DNMT) or other DNA methylation maintenance mechanism occur, C-methylation of the promoter CpG island decreases and secretory luciferase is expressed. Since the luciferase is secretory type, it is a screening system for DNMT inhibitory activity by which the assessment can be conducted easily by collecting cell supernatant and adding the substrate of luciferin. That is, on the day before the sample addition, colon cancer cells HML58-3 that had been genetically modified were seeded in a 96-well cell culture plate. 10 μM of each sample was added to each of them, and cultured for 4 days. On day 5, the cell supernatant was collected and luciferase activity was determined. In addition, cell account for each sample was determined according to WST-8 method.

[3] = tested on: DNA methyltransferase (DNMT); experiment: Screening system for DNMT inhibitory activity (secretory luciferase reporter in HML58-3 cells); assay type: cell-based; settings: 10 μM of sample, cultured for 4 days, cell supernatant on day 5, HML58-3 cells
Excerpt: The screening system for assessment of DNMT inhibitory activity used for 5′-position dibenzyl monophosphate derivatives of 5-azacytidine and its 2′-deoxy form is the evaluation system which we have developed recently (Epigenetics, 2016, Dec 9:0: Establishment of a high-throughput detection system for DNA demethylating agents, E. Okochi-Takada, N. Hattori et al.). It is a simple screening system for assessment of DNMT inhibitory activity which uses genetically modified colorectal cancer cells, wherein […] luciferase can be expressed when 5-position methylation of cytosine ring in expressed gene promoter region is inhibited by inhibiting DNA methyltransferase (DNMT).
The screening system for assessment of DNMT inhibitory activity used for 5′-position dibenzyl monophosphate derivatives of 5-azacytidine and its 2′-deoxy form is the evaluation system which we have developed recently (Epigenetics, 2016, Dec 9:0: Establishment of a high-throughput detection system for DNA demethylating agents, E. Okochi-Takada, N.
as §1

[4] = tested on: HCT116 cell (human colon cancer); experiment: Antitumor activity in HCT116 cell-transplanted mouse model; assay type: in vivo, nude mice; settings: intraperitoneal, twice a week, 6 times in total; 5.5, 11 and 22 mg/kg; observed until 28th day; vs vehicle (DMSO)
Procedure: (§2) In vivo assessment In order to investigate the antitumor activity of 5′-position dibenzyl monophosphate derivatives of 5-azacytidine and its 2′-deoxy form, a HCT116 cell-transplanted mouse model derived from human colon cancer was used. After nurturing nude mice (female, 5 weeks old), 5×10^6 cells were transplanted subcutaneously into right flank. From the grouping date, samples in various concentrations (DMSO solution) were administered intraperitoneally for 6 times in total, at a frequency of twice a week. The observation was performed until the 28th day after grouping, during which body weight and tumor diameter were measured at a frequency of once a week.

[5] = Body weight / safety in HCT116 cell-transplanted mouse model; assay type: in vivo, nude mice; settings: intraperitoneal, twice a week, 6 times in total; 5.5, 11 and 22 mg/kg; observed until 28th day
Procedure: as §2

| Substance | Distribution coefficient log P [1] | Cytotoxicity (cell count, WST-8 method) [2] | Luciferase activity (DNMT inhibition) [3] | Antitumor activity (tumor volume) [4] | Safety / change in body weight [5] |
| --- | --- | --- | --- | --- | --- |
| O,O′-Di(4-chloro)benzyl 5-aza-2′-deoxycytidylate [Compound (E)] | 2.44 | low | very strong luciferase activity | – | – |
| O,O′-Di(4-fluoro)benzyl 5-aza-2′-deoxycytidylate [Compound (D)] | 1.40 | low | very strong luciferase activity | dose-dependent antitumor activity | highly safe |
| O,O′-Di(4-methyl)benzyl 5-aza-2′-deoxycytidylate [Compound (C)] | – | low | very strong luciferase activity | – | – |
| O,O′-Dibenzyl 5-aza-2′-deoxycytidylate [Compound (B)] | 1.15 | low | very strong luciferase activity | – | – |
| O,O′-Dibenzyl 5-azacytidylate [Compound (A)] | 0.83 | – | – | – | – |
